Test results from article PMC9986241 (Signal Transduction and Targeted Therapy, 2023).

Columns and labels:
[1] = biological target: T1, CRAF (306-end) (Homo sapiens, UniProt P04049); assay: ITC assay; format: binding; details: PBS (0.1% DMSO, pH = 7.4), read-out: affinity (Kd)
T1 construct: purchased
Protocol: (§1) 293 T cells were transfected with plasmids of pcDNA3.1-3×Flag-C-MAP2K1/MAP2K1 (K97A, M146A), MAP2K2/MAP2K1 (K101A, M150A), or CRAF/CRAF (K375A). […]
(§2) The ITC experiment was performed on a MicroCal PEAQ-ITC. […] All proteins and erianin were diluted with PBS (0.1% DMSO, pH = 7.4), and deionized water was injected into the reference cell as a heat balance control. After 19 times titrations of erianin into the sample cell at a constant rate of 150 s, the titration curve was fitted with nonlinear least squares estimation model using Microcal ORIGIN V7.0.

[2] = biological target: MEK1 full length (Homo sapiens, UniProt Q02750); assay: ITC assay; format: binding; details: PBS (0.1% DMSO, pH = 7.4), read-out: affinity (Kd)
Protocol: as §1, §2

[3] = biological target: MEK2 full length (Homo sapiens, UniProt P36507); assay: ITC assay; format: binding; details: PBS (0.1% DMSO, pH = 7.4), read-out: affinity (Kd)
Protocol: as §1, §2

[4] = Pharmacokinetic assay; format: in vivo, Kunming mice; details: Kunming, mouse, plasma; oral gavage 50 mg/kg vs tail vein injection 25 mg/kg
Text: For pharmacokinetic study of erianin, LC-MS/MS was implemented to monitor the plasma concentration over times and associated parameters. Chromatographic separation was obtained on an ZORBAX SB-C18 column (3.5 μm, 3.0 × 100 mm). 85% acetonitrile was selected as the mobile phase. The conditions of ESI source were optimized as follows: Spray voltage 4000 V; nitrogen for dying with a flow rate of 11 L/min. Detect the selected reaction monitoring mode for quantification, m/z 315.0 > 180.8 for IS and m/z 319.1 > 150.9 for erianin, respectively. 2′-Hydroxy-4,4′,6′-trimethoxychalcone (500 ng/mL) was selected as internal standard. After the validation of standard curves (0.1, 1, 5, 10, 50, 100, 500, 800, and 1200 ng/mL for oral; 10, 50, 100, 500, 800, 1200, 2400, 4800, 9600 ng/mL for intravenous) and methods including selectivity, linearity, sensitivity, precision and stability, erianin was given to Kunming mice through oral gavage (50 mg/kg, n = 6) or tail vein injection (25 mg/kg, n = 4). A series of time points including 0, 0.083, 0.25, 0.5, 0.75, 1, 2, 3, 4, and 8 h were set for blood extraction. The pharmacokinetic parameters were analyzed using DAS 2.0. Absolute bioavailability (F%) = (AUCoral × Div)/(AUCiv × Doral) × 100%.

[5] = biological target: T2, BRAF V600E (416-end) (Homo sapiens, UniProt P15056, V600E); assay: In vitro kinase assay (western blotting); format: biochemical; details: 12.5 to 50 nM
T2 construct: purchased Signal Chem B08-12G
Protocol: (§3) After incubated with 100–400 μM ATP in kinase assay buffer for 30 min, the phosphorylation of the substrate/total substrate protein was detected by western blotting. For ADP-glo kinase assay, unconsumed ATP was depleted with the addition of ADP-Glo™. Followed by kinase detection reagent to convert ADP to ATP, consumption of ATP was detected to evaluate the kinase activity. For more details, refer to the manufacturer’s instructions of ADP-Glo™ Kinase Assay.
(§4) Figure S2. […] Enzyme kinetics parameters including Vmax and Km were obtained using the Michaelis double-reciprocal curve equation.

[6] = biological target: T3, BRAF WT (381-end) (Homo sapiens, UniProt P15056); assay: In vitro kinase assay (western blotting); format: biochemical; details: 12.5 to 50 nM
T3 construct: purchased Signal Chem B08-11BG
Protocol: as §3, §4

[7] = biological target: T4, CRAF (Homo sapiens, UniProt P04049, Y340E/Y341E); assay: Luminescent ADP detection (ADP-glo kinase) assay; format: biochemical; details: 1–100 nM
T4 construct: purchased Signal Chem R01-13G
Protocol: as §3

[8] = biological target: MEK1 (Homo sapiens, UniProt Q02750); assay: Luminescent ADP detection (ADP-glo kinase) assay; format: biochemical; details: 1–100 nM
Protocol: as §3

[9] = biological target: MEK2 (Homo sapiens, UniProt P36507); assay: Luminescent ADP detection (ADP-glo kinase) assay; format: biochemical; details: 1–100 nM
Protocol: as §3

[10] = biological target: T5, CRAF (Homo sapiens, UniProt P04049); assay: Erianin-conjugated Sepharose 4B bead pull-down assay; format: binding; details: in vitro and ex vivo (A375 cell lysate)
T5 construct: endogenous in cells; host or cells: A375
Protocol: as §1
Cell lysate (500 μg) or recombinant proteins (200 ng) were incubated with erianin-CNBr activated sepharose 4B overnight at 4 °C, and the protein-beads complex was washed four times by the use of rotational incubator to remove non-specific binding. Western blotting was developed to check the pull-down bands.

[11] = test system: SK-MEL-2, A375, SK-MEL-28, and HCT 116 cells; assay: MTT growth assay at 24, 48, or 72 h; format: cell-based, human; details: both BRAF and RAS mutant cell lines
Protocol: The synergism and antagonism (CI value) were determined and analyzed using CompuSyn 1.0.
For cytotoxicity test, normal NHDF (5000 cells/well) and NHEM cell line (3000 cells/well) were planted into 96-well plates. For cell proliferation assay, A375 (1500 cells/well), SK-MEL-28 (3000 cells/well), SK-MEL-2 (4000 cells/well), and HCT116 (1500 cells/well) were planted into 96-well plates, determined concentration of drug was added after culture for 24 h. The viability of the cells was detected within 72 h using MTT solution (5 mg/mL). The absorbance at 570/490 nm was quantified by the use of the microplate reader.

T3 sequence (P15056 381-766 limits assumed): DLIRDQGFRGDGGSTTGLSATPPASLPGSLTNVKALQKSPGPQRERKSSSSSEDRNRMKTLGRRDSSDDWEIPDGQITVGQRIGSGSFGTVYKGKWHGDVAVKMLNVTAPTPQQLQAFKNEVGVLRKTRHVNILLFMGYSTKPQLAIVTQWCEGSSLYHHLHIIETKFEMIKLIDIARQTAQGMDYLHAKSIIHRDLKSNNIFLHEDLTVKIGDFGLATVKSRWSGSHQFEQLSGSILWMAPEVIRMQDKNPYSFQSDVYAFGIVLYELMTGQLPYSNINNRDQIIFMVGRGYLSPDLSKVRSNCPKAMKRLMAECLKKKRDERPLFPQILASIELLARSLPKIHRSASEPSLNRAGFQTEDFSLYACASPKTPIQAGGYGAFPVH
T5 sequence (P04049 whole entry): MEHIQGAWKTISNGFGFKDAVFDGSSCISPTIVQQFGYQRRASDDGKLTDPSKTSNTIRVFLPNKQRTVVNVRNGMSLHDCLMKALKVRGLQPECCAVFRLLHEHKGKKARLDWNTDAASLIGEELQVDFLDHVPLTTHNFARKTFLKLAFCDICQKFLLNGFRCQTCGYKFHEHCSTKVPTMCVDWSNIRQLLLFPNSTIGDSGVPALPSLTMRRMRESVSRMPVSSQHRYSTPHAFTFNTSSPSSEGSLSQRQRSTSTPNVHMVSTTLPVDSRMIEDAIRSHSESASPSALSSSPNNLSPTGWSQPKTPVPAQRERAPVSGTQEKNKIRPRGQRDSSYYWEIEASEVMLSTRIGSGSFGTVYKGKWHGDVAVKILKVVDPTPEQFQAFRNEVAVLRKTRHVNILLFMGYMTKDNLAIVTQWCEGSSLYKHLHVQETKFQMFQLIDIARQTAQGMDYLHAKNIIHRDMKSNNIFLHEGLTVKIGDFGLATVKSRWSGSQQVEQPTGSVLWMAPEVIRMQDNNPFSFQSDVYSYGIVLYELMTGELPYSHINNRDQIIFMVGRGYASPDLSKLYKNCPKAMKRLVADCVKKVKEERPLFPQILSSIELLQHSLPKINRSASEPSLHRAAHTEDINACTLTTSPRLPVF
MEK2 full length, sequence (P36507 whole entry): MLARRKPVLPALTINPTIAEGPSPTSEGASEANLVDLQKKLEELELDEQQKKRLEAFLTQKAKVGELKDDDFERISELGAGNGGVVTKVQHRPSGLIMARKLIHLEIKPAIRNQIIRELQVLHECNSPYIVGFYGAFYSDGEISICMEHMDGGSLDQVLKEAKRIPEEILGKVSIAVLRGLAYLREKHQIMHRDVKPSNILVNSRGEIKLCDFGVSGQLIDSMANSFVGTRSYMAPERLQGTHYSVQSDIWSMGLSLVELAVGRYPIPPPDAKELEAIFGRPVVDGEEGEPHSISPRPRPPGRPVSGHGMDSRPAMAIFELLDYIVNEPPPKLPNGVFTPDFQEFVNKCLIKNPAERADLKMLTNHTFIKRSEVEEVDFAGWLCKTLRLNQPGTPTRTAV
MEK2, sequence (P36507 whole entry): as above
T1 sequence (P04049 306-648 limits assumed): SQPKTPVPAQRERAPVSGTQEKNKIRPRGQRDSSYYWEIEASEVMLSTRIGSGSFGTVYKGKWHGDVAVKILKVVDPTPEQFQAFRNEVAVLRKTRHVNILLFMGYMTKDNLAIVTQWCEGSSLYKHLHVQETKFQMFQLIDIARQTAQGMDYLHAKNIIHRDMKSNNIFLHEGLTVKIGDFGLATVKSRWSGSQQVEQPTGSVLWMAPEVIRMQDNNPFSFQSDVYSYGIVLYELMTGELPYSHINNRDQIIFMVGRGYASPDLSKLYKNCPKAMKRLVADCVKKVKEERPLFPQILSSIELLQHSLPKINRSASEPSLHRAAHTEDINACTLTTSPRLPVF
T2 sequence (P15056 416-766 V600E): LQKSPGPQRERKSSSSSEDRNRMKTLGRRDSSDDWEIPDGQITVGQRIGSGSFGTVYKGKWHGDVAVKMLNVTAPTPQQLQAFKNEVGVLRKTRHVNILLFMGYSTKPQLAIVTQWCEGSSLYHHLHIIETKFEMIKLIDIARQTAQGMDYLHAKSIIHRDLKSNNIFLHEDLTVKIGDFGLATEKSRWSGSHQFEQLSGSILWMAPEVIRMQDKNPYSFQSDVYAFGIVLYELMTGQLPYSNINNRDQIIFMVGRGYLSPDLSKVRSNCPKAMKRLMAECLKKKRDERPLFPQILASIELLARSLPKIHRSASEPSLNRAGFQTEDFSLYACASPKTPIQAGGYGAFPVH
T4 sequence (P04049 306-648 Y340E/Y341E): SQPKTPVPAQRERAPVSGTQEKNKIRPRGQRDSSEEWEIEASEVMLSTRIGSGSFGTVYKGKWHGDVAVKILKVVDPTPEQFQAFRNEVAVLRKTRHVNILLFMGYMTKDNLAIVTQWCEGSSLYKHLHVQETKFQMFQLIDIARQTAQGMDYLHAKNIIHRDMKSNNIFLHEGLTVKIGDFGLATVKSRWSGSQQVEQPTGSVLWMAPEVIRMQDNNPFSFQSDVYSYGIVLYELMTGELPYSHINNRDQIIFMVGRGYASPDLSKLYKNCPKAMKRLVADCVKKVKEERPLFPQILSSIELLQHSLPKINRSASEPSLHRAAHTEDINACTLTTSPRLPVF
MEK1, sequence (Q02750 whole entry): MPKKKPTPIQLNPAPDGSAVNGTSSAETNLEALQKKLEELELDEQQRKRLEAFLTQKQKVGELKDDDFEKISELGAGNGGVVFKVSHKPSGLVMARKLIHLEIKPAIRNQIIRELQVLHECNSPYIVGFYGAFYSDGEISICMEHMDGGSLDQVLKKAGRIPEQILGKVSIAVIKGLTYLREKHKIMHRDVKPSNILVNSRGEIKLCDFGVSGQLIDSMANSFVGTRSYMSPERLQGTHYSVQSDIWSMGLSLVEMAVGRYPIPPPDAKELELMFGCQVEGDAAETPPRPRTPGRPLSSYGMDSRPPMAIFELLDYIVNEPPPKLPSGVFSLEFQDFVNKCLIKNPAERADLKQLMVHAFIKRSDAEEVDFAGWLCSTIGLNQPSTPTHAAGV
MEK1 full length, sequence (Q02750 whole entry): as above

## COc1ccc(CCc2cc(OC)c(OC)c(OC)c2)cc1O [Erianin]
[1]
  Kd: 46 µM
[2]
  Kd: 59.3 µM
[3]
  Kd: 101 µM
[4]
  bioavailability: 8 ± 1.1%
[5]
  BRAF V600E kinase activity: could not suppress
[6]
  BRAF WT kinase activity: could not suppress
[7]
  kinase activity (luminescence signal): inhibited the kinase activity
[8]
  kinase activity (luminescence signal): inhibited the kinase activity
[9]
  kinase activity (luminescence signal): inhibited the kinase activity
[10]
  binding in pull-down: directly bound
[11]
  proliferation: markedly suppress
